Assay results from PubChem BioAssay AID270 (DTP/NCI, 2004).
Several values for one entry are separate records, joined by “and”; a condition that tells them apart may be missing. Identical values can stand only once. Results filed as inconclusive are left out. *1 amine or outer side, *2 acyl side, *3 side chain or, on linkers, in order; H or OH if unused. Where a SMILES comes first, the peptide text is derived from it. Bridges are numbered along the chain shown (N, C = ends). Roman numbers before positions name the chains, in order. [ ]: non-standard residue; d: D form. Actinocin(9to1) = Cc1c2oc3c(C)ccc(C(=O)[*:1])c3nc-2c(C(=O)[*:2])c(N)c1=O; aThr = C[C@H](O)[C@H](N)C(=O)O; NMeV = CN[C@H](C(=O)O)C(C)C; Sar = CNCC(=O)O

System: BDF1 mice, s.c. Lewis lung carcinoma, T/C %
Assay: NCI In Vivo Anticancer Drug Screen. Data for tumor model Lewis Lung Carcinoma (subcutaneous) in B6D2F1 (BDF1) mice
Procedure, shortened: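 Tumor-bearing mice were treated with test compound, and either survival or tumor size was recorded. Values are the treated-group measurement divided by that of the vehicle-treated control group.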

`Cc1c2oc3c(C)ccc(C(=O)N[C@@H]4C(=O)N[C@H](C(C)C)C(=O)N5CCC[C@H]5C(=O)N(C)CC(=O)N(C)[C@@H](C(C)C)C(=O)O[C@H]4C)c3nc-2c(C(=O)N[C@@H]2C(=O)N[C@H](C(C)C)C(=O)N3CCC[C@H]3C(=O)N(C)CC(=O)N(C)[C@@H](C(C)C)C(=O)O[C@H]2C)c(N)c1=O` (I: [aThr][dV]P[Sar][NMeV] / II: [aThr][dV]P[Sar][NMeV]; ester I:1-I:C, II:1-II:C; linker I:N-II:N via Actinocin(9to1)) was tested, and the T/C (endpoint: mean tumor weight, dose: 0.03 mg/kg/injection, schedule: Q01DX011 (ip), vehicle: saline, higher = larger tumour) was 89 % of control, the T/C (endpoint: mean tumor weight, dose: 0.05 mg/kg/injection, schedule: Q01DX011 (ip), vehicle: saline, higher = larger tumour) was 55 % of control and the T/C (endpoint: mean tumor weight, dose: 12.0 micrograms/kg/injection, schedule: Q01DX011 (ip), vehicle: other, higher = larger tumour) was 122 % of control. The T/C (endpoint: mean tumor weight, dose: 25.0 micrograms/kg/injection, schedule: Q01DX011 (ip), vehicle: other, higher = larger tumour) was 95 % of control and 98 % of control, the T/C (endpoint: mean tumor weight, dose: 50.0 micrograms/kg/injection, schedule: Q01DX011 (ip), vehicle: other, higher = larger tumour) was 42 % of control and 49 % of control and the T/C (endpoint: median survival time, dose: 12.5 micrograms/kg/injection, schedule: Q01DX009 (ip), vehicle: saline, higher = longer survival) was 98 % of control and 122 % of control. The T/C (endpoint: median survival time, dose: 12.5 micrograms/kg/injection, schedule: Q01DX009 (ip), vehicle: water, higher = longer survival) was 112 % of control, the T/C (endpoint: median survival time, dose: 13.0 micrograms/kg/injection, schedule: Q01DX009 (ip), vehicle: saline, higher = longer survival) was 116 % of control and the T/C (endpoint: median survival time, dose: 25.0 micrograms/kg/injection, schedule: Q01DX009 (ip), vehicle: water, higher = longer survival) was 120 % of control. For the same molecule, the T/C (endpoint: median survival time, dose: 50.0 micrograms/kg/injection, schedule: Q01DX009 (ip), vehicle: water, higher = longer survival) was 102 % of control, the T/C (endpoint: median survival time, dose: 75.0 micrograms/kg/injection, schedule: Q04DX003 (ip), vehicle: water, higher = longer survival) was 153 % of control and the T/C (endpoint: median survival time, dose: 150.0 micrograms/kg/injection, schedule: Q04DX003 (ip), vehicle: water, higher = longer survival) was 105 % of control. The T/C (endpoint: median tumor weight (est.), dose: 12.0 micrograms/kg/injection, schedule: Q01DX009 (ip), vehicle: saline, higher = larger tumour) was 88 % of control, the T/C (endpoint: median tumor weight (est.), dose: 25.0 micrograms/kg/injection, schedule: Q01DX009 (ip), vehicle: saline, higher = larger tumour) was 98 % of control and the T/C (endpoint: median tumor weight (est.), dose: 50.0 micrograms/kg/injection, schedule: Q01DX009 (ip), vehicle: saline, higher = larger tumour) was 70 % of control. For the same molecule, the T/C (endpoint: median tumor weight (est.), dose: 100.0 micrograms/kg/injection, schedule: Q01DX009 (ip), vehicle: saline, higher = larger tumour) was 51 % of control.

With `O=NN(CCCl)C(=O)NC1CC2CCC1C2` (stereo not given) the T/C (endpoint: median survival time, dose: 10.0 mg/kg/injection, schedule: Q01DX001 (ip), vehicle: Klucel (hydroxypropylcellulose) (HPC), higher = longer survival) was 102 % of control and 108 % of control, the T/C (endpoint: median survival time, dose: 20.0 mg/kg/injection, schedule: Q01DX001 (ip), vehicle: Klucel (hydroxypropylcellulose) (HPC), higher = longer survival) was 99 % of control and 102 % of control and the T/C (endpoint: median survival time, dose: 40.0 mg/kg/injection, schedule: Q01DX001 (ip), vehicle: Klucel (hydroxypropylcellulose) (HPC), higher = longer survival) was 106 % of control. The T/C (endpoint: median survival time, dose: 80.0 mg/kg/injection, schedule: Q01DX001 (ip), vehicle: Klucel (hydroxypropylcellulose) (HPC), higher = longer survival) was 260 % of control and the T/C (endpoint: median survival time, dose: 160.0 mg/kg/injection, schedule: Q01DX001 (ip), vehicle: Klucel (hydroxypropylcellulose) (HPC), higher = longer survival) was 117 % of control.

In the case of `O=c1[nH]cnc2n[nH]nc12`, the T/C (endpoint: mean tumor weight, dose: 49.0 mg/kg/injection, schedule: Q01DX011 (ip), vehicle: other, higher = larger tumour) was 76 % of control, the T/C (endpoint: mean tumor weight, dose: 98.0 mg/kg/injection, schedule: Q01DX011 (ip), vehicle: other, higher = larger tumour) was 64 % of control and the T/C (endpoint: mean tumor weight, dose: 147.0 mg/kg/injection, schedule: Q01DX011 (ip), vehicle: other, higher = larger tumour) was 55 % of control. For the same molecule, the T/C (endpoint: mean tumor weight, dose: 220.0 mg/kg/injection, schedule: Q01DX011 (ip), vehicle: other, higher = larger tumour) was 67 % of control.
